Measured values: article PMC12097107, “Identification and Biological Evaluation of a Novel CLK4 Inhibitor Targeting Alternative Splicing in Pancreatic Cancer Using Structure‐Based Virtual Screening” (Advanced Science, 2025)

How the values were obtained:
[1] = biological target: T1, CLK1 (Homo sapiens, UniProt P49759); experiment: SelectScreen kinase profiling (assay format per kinase not given); type: biochemical; conditions: read-out: % inhibition at 30 nM
T1 construct: Thermo Fisher SelectScreen panel kinase

[2] = biological target: T2, CLK3 (Homo sapiens, UniProt P49761); experiment: as above; type: biochemical; conditions: read-out: % inhibition at 30 nM
T2 construct: Thermo Fisher SelectScreen panel kinase

[3] = biological target: T3, CLK4 (Cdc-like kinase 4; Cdc2-like kinase 4) (Homo sapiens, UniProt Q9HAZ1); experiment: LanthaScreen Eu kinase binding assay (FRET)
Description: (§1) LanthaScreen Eu kinase binding assay (FRET) on CLK4 (Cdc-like kinase 4; Cdc2-like kinase 4)

[4] = biological target: T2, CLK3; experiment: biochemical; parameters: Thermo Fisher SelectScreen kinase assays (LanthaScreen Eu binding, Adapta or Z'LYTE), per cent inhibition
Method: (§2) Enzyme‐based assays were carried out by Thermo Fisher Scientific (Waltham, MA, USA). Thermo Fisher Scientific utilizes LanthaScreen Eu Kinase Binding Assay Technology (www.thermofisher.com/lanthascreen), which is based on fluorescence resonance energy transfer (FRET), to conduct the kinase activity assays. Fluorescent receptor dyes are conjugated to the kinase, and an Eu‐labeled anti‐tag antibody is added to detect the phosphorylated fluorescein‐labeled substrate. The fluorescence‐labeled kinase, antibody, and test compounds are combined in an appropriate buffer solution. After incubation, the mixture is placed in a fluorescent plate reader capable of detecting FRET signals. FRET efficiency is calculated by comparing the ratio of the acceptor emission to the donor emission. The selected compounds were evaluated at specified concentrations, and IC50 values were determined using GraphPad Prism software (La Jolla, CA, USA). Each enzymatic activity assay was performed in duplicate, following the quality control guidelines of Thermo Fisher Scientific. Kinase profiling was carried out using the SelectScreen kinase profiling service provided by Thermo Fisher Scientific, with supplementary assays such as Adapta and Z'LYTE included when available for the respective kinases. The detailed protocols are available at the following links: www.thermofisher.com/adapta and https://www.thermofisher.com/z‐lyte. Selectivity is essential for kinase inhibitors to minimize off‐target effects and reduce adverse reactions. Selective inhibitors also enable researchers to better understand the specific functions of targets like CLK4 in physiological and pathological pathways. Therefore, we further evaluated the selectivity of compound 150441 using kinase profiling analysis. The compound was tested at a concentration of 30 nM against a panel of 60 kinases from various families using Thermo Fisher SelectScreen kinase profiling services (Figure 7 ). […] In addition, CLKs comprise four isoforms: CLK1, CLK2, CLK3, and CLK4.

[5] = biological target: T4, CLK2 (Homo sapiens, UniProt P49760); experiment: biochemical; parameters: Thermo Fisher SelectScreen kinase assays (LanthaScreen Eu binding, Adapta or Z'LYTE), per cent inhibition
T4 construct: Thermo Fisher SelectScreen panel kinase
Method: as §2

[6] = biological target: T1, CLK1; experiment: biochemical; parameters: Thermo Fisher SelectScreen kinase assays (LanthaScreen Eu binding, Adapta or Z'LYTE), per cent inhibition
Method: as §2

[7] = biological target: T3, CLK4 (Cdc-like kinase 4; Cdc2-like kinase 4); experiment: biochemical; parameters: Thermo Fisher SelectScreen kinase assays (LanthaScreen Eu binding, Adapta or Z'LYTE), per cent inhibition
Method: as §2

[8] = biological target: T4, CLK2; experiment: SelectScreen kinase profiling (assay format per kinase not given); type: biochemical; conditions: read-out: % inhibition at 30 nM
[9] = biological target: T3, CLK4 (Cdc-like kinase 4; Cdc2-like kinase 4); experiment: LanthaScreen Eu kinase binding assay (FRET); type: biochemical
Description: as §1

T3 sequence (Q9HAZ1 whole entry): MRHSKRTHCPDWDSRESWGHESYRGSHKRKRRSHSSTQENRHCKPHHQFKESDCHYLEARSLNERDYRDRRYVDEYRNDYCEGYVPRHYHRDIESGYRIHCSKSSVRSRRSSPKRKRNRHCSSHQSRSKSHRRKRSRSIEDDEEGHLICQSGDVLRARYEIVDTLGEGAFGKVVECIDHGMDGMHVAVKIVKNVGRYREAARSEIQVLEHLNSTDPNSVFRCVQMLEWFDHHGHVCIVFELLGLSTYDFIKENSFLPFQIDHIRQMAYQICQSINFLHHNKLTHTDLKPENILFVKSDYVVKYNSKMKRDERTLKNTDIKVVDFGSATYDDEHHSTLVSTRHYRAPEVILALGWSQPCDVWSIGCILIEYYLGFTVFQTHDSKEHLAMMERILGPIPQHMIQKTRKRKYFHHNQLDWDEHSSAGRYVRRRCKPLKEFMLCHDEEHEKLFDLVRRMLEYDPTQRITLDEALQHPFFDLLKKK
T4 sequence (P49760 whole entry): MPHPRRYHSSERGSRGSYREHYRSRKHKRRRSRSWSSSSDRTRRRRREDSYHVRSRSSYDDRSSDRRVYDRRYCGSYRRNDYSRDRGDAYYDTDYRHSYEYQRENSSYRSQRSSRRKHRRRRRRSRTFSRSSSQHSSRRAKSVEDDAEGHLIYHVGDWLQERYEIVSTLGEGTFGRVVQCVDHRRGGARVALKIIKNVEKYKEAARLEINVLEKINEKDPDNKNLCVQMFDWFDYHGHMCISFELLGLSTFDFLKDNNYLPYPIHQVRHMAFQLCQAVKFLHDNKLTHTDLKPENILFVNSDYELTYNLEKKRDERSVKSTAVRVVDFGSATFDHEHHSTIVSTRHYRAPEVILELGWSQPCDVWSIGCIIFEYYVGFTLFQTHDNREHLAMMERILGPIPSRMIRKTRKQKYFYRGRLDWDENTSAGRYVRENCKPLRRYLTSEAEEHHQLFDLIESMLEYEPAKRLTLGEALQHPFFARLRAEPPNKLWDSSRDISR
T2 sequence (P49761 whole entry): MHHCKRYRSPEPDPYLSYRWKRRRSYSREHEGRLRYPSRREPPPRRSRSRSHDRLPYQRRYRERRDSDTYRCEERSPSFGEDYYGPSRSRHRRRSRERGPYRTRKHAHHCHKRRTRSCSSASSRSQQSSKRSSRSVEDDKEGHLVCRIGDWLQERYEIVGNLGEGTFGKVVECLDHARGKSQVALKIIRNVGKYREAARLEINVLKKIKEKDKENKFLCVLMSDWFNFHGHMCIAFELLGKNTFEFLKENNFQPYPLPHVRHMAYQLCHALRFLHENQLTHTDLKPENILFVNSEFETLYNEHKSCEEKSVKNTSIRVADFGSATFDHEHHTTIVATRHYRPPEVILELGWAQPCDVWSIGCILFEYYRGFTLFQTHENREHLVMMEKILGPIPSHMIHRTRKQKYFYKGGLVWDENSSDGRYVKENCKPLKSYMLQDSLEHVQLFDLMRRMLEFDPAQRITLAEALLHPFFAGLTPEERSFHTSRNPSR
T1 sequence (P49759 whole entry): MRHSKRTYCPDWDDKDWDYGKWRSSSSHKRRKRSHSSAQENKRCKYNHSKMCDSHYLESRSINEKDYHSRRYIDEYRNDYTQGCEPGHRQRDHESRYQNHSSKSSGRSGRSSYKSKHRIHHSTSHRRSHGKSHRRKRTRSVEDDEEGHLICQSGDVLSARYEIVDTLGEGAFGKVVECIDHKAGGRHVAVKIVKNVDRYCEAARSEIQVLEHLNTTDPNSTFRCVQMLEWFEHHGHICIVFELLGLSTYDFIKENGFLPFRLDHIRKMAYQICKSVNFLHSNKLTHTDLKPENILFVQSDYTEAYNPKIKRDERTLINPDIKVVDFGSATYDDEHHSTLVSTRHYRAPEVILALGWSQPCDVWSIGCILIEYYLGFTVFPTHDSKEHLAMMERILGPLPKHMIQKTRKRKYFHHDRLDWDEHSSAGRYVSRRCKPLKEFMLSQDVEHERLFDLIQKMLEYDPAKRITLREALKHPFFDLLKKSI

Cc1c2cnccc2c(C)c2c1c1ccccc1n2CCN(C)C [compound 150441, 150441]
inhibition at 0.03 µM [1]: 7%
inhibition at 0.03 µM [2]: 1.8%
IC50 [3]: 21.4 nM
inhibition at 1 µM [4]: 6%
inhibition at 1 µM [5]: 62%
inhibition at 1 µM [6]: 75%
inhibition at 1 µM [7]: 98%
inhibition at 0.03 µM [8]: 9.1%

Cc1c2c(C(N)=O)nccc2c(C)c2c1c1ccccc1n2Cc1ccccc1 [compound 320613, 320613]
inhibition at 1 µM [9]: 3%

Cc1c2cnccc2c(C)c2c1c1ccccc1n2CC1CO1 (centres unmarked) [compound 152731, 152731]
IC50 [3]: 38.2 nM
inhibition at 1 µM [4]: 4%
inhibition at 1 µM [5]: 81%
inhibition at 1 µM [6]: 86%
inhibition at 1 µM [7]: 98%

COc1ccc2c(c1)c1c(C)c3cnccc3c(C)c1n2CC1CO1 (centres unmarked) [compound 150836, 150836]
IC50 [3]: 101 nM

COc1ccc2[nH]c3c(C)c4cc[n+]([O-])cc4c(C)c3c2c1 [compound 237069, 237069]
inhibition at 1 µM [9]: 47%

Cc1c2cnccc2c(C)c2c1c1ccccc1n2CCNCc1ccccc1 [compound 164016, 164016]
IC50 [3]: 34.8 nM
inhibition at 1 µM [4]: 7%
inhibition at 1 µM [5]: 69%
inhibition at 1 µM [6]: 65%
inhibition at 1 µM [7]: 95%

COc1ccc2[nH]c3c(C)c4ccncc4c(C)c3c2c1 [compound 69187, 69187]
IC50 [3]: 98.8 nM

Cc1c2cnccc2c(C)c2c1c1ccccc1n2Cc1ccccc1 [compound 322087, 322087]
IC50 [3]: 121 nM
